Calls of active or inactive are those of the source. Some results are limits rather than exact numbers.

Test [1] addresses Cytochrome P450 2C19 (Homo sapiens, UniProt P33261). Put plainly: Cytochrome panel assay with activity outcomes. Panel member name: p450-cyp2c19 Compounds with AC50 equal or less than 10 uM are considered active. The following applies: read-out: AC50. Format: functional.
Test [2] addresses Cytochrome P450 2C9 (Homo sapiens, UniProt P11712).
The target of test [3] is T1, Rac GTPase-activating protein 1 (Homo sapiens, UniProt Q9H0H5).
T1 sequence (Q9H0H5 whole entry): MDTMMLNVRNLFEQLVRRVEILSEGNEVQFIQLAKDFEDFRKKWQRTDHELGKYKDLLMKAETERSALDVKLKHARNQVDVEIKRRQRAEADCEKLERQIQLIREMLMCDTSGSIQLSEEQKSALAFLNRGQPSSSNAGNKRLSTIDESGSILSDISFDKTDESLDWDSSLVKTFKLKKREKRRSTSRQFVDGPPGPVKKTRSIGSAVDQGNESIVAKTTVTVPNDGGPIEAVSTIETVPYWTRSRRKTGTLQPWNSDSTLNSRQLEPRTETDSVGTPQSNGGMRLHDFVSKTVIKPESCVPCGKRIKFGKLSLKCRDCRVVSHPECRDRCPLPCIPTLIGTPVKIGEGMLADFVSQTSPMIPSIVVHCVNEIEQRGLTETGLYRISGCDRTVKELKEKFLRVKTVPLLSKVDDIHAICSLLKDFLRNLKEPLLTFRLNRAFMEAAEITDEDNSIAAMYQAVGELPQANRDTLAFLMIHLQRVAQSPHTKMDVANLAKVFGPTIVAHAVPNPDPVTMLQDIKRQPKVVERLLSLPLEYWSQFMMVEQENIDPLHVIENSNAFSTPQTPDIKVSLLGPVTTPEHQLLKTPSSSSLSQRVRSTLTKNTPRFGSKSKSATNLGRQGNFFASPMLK
Put plainly: blockers of MgcRacGAP-driven Rac1 GTP hydrolysis – biochemical, ADP Hunter fluorescence, primary and confirmatory, confirmation (AID 624330). Format: functional.

For test [4], the target named is Cytochrome P450 2D6 (Homo sapiens, UniProt P10635).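 Further: CYP2D6 member of a cytochrome P450 panel assay.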
Test [5] has as its target T2, Cytochrome P450 1A2 (Homo sapiens, UniProt P05177).
T2 sequence (P05177 whole entry): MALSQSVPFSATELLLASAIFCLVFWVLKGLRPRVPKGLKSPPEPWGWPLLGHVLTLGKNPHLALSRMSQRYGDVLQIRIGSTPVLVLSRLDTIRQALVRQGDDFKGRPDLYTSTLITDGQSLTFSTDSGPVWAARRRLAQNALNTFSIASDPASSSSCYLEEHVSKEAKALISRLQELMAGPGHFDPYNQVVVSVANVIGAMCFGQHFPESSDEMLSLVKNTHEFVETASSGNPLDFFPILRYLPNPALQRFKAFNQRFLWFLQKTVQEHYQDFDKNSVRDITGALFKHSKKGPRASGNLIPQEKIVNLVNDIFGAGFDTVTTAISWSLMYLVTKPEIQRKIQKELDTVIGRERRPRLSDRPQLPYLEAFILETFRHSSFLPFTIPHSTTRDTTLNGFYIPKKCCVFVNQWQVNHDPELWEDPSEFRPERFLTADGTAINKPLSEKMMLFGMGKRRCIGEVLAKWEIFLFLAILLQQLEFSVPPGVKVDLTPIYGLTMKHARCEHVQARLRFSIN

Test [6] has as its target Cytochrome P450 3A4 (Homo sapiens, UniProt P08684).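 Further: CYP3A4 tested as one member of a cytochrome P450 panel screen.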
In test [7] the target is T3, Corticotropin-releasing factor receptor 2/Corticotropin-releasing factor-binding protein (Homo sapiens, UniProt P24387+Q13324).
T3 sequence (Q13324 whole entry): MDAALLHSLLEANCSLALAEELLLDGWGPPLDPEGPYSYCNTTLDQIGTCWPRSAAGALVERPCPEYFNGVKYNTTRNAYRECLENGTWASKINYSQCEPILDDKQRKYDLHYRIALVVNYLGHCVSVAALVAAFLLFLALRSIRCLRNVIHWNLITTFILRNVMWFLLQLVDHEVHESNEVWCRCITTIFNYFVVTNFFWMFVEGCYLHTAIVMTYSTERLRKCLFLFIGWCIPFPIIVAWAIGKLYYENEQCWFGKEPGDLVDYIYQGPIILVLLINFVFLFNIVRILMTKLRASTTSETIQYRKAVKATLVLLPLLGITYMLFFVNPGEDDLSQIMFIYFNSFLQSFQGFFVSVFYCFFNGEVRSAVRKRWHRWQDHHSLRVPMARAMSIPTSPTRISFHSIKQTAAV
T3 sequence (P24387 whole entry): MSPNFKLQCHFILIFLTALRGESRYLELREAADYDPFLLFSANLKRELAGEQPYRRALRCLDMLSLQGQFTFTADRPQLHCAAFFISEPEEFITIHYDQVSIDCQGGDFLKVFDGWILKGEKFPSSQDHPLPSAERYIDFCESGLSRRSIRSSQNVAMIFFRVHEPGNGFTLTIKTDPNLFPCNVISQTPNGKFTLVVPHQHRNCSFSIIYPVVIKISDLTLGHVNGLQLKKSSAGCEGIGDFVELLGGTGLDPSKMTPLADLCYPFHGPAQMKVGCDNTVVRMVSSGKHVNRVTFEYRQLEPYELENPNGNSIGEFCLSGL
Put plainly: activators of CRF receptor 2 with binding protein – uHTS hits, confirmation (AID 602473). Format: functional. The following applies: read-out: EC50_Mean.

Test [8] has as its system Streptococcus sp. 'group A'. Briefly: Streptococcus pyogenes SK(-)GAS viability under kanamycin – luminescence, BacTiterGlo, confirmation, counter-screen for streptokinase expression inhibitor project, dose response (AID 1900). Format: functional, organism-based. (Counterscreens check selectivity or assay interference.)
The test system of test [9] is Streptococcus. Briefly: GAS UMAA2166 growth inhibition – luminescence, BacTiterGlo, counter-screen for streptokinase expression inhibitor project, dose response (AID 1915).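 Further: potency for reduction of bacterial viability or growth.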 It counts as functional, organism-based.
A short description of test [10]: Luminescence Cell-Based Dose Retest to Confirm Inhibitors of Cancer Stem Cells. [Related pubchem assays (depositor defined):AID2717, AID2721]. The following applies: Homo sapiens. Format: functional.

Sequence of Cytochrome P450 3A4 (P08684 whole entry): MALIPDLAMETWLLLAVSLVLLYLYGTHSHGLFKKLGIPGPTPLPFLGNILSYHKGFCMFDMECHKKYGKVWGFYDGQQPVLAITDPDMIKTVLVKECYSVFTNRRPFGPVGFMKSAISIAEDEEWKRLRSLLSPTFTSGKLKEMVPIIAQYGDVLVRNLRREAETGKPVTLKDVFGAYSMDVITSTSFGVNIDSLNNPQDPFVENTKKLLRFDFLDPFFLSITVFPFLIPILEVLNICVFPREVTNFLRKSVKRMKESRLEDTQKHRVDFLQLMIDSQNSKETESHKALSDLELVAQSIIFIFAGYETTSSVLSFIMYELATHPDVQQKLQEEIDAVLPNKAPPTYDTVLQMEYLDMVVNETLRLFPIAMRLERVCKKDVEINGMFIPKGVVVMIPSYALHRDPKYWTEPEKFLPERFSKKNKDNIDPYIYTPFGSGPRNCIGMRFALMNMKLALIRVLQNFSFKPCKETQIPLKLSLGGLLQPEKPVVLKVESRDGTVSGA
Sequence of Cytochrome P450 2C9 (P11712 whole entry): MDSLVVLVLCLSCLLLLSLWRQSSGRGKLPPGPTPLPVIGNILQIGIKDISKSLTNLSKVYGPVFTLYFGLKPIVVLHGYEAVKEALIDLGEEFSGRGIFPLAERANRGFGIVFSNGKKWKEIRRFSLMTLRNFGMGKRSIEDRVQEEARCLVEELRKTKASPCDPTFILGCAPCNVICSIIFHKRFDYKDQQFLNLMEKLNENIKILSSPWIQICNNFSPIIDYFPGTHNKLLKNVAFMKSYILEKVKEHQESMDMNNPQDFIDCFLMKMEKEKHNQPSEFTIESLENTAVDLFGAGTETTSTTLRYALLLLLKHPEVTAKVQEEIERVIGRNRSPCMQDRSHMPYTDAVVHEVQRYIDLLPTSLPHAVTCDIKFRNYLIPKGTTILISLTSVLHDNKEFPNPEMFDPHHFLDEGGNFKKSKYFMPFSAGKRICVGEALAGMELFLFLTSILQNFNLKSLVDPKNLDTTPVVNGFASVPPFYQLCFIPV
Sequence of Cytochrome P450 2C19 (P33261 whole entry): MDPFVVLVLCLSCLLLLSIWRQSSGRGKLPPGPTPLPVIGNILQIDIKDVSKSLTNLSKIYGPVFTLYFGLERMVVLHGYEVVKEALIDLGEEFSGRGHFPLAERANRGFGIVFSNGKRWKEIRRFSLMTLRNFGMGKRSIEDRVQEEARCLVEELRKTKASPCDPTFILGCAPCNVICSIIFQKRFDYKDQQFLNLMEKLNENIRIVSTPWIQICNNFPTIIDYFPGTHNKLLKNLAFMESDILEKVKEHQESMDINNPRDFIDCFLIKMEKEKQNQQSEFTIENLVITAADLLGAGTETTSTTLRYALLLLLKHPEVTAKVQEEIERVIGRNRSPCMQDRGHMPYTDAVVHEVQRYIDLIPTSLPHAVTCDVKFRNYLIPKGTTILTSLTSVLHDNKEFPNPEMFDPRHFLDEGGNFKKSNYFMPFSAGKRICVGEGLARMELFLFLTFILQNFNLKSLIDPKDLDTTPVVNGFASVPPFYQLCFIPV
Sequence of Cytochrome P450 2D6 (P10635 whole entry): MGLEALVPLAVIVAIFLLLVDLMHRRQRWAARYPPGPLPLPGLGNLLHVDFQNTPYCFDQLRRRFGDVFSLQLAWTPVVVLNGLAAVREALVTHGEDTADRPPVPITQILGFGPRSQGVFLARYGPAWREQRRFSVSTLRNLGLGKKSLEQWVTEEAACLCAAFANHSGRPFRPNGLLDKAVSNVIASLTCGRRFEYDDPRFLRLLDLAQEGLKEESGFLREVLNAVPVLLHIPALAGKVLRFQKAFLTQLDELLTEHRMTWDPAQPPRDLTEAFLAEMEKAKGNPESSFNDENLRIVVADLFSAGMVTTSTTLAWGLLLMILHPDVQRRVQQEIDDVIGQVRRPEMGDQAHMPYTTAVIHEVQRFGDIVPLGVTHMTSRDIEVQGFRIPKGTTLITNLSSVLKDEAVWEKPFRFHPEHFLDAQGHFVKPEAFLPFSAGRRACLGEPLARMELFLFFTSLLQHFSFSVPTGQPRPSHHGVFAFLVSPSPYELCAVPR

One may read the AC50 as the concentration at which the activity in the assay is half-maximal. As to `Cc1ccc(CNC(=O)C2(NC(=O)Nc3ccc(C)cc3)CCCCC2)cc1`, the AC50 in test [1] is 1.78 µM (inconclusive); in [2], 3.55 µM (inconclusive).

As a reminder, the IC50 is the concentration that inhibits the measured activity by half. On to `COC(=O)c1ccc(C(=O)OCCCc2nc3cc(N)ccc3[nH]2)cc1`, for which the IC50 in [3] was 110 µM (active).

Turning to `COc1cc(/C=C/C(=O)OCC(=O)NC2CCS(=O)(=O)C2)ccc1O` (configuration not stated), in test [3], the IC50 was 47.1 µM (active).

For `CCN(CC)c1ccc(NC(=O)COc2ccc(-n3cnnn3)cc2)cc1`, the IC50 in test [3] was 63 µM (active).

Turning to `COc1ccc2[nH]cc(CCNc3ccnc(-c4c(C)noc4C)n3)c2c1`, the AC50 in test [4] was 12.6 µM (inconclusive); in [2], 0.794 µM (inconclusive).

For the molecule `O=C(NCCC1=CCCCC1)C1CCCN(c2nc3ccccc3o2)C1` (configuration not stated), the AC50 in test [4] is 14.1 µM (inconclusive); in [5], 15.8 µM (inconclusive).

Regarding `CN1/C(=C/C=C(/C#N)C(N)=O)C(C)(C)c2ccccc21`, the values for the AC50 in test [6] and in test [2] were 22.4 µM (inconclusive) and 28.2 µM (inconclusive), respectively.

As to `Cc1cc(Cl)cc2sc(S)nc12`, the IC50 in [3] is 85.4 µM (active).

For `Cc1nn(C(C)C(=O)Nc2sc3c(c2C#N)CCCC3)c(C)c1[N+](=O)[O-]` (configuration not stated), in [2], the AC50 is 3.98 µM (inconclusive).

In the case of `Cc1ccc(Cn2cnc3c(nnn3Cc3ccc(Cl)cc3)c2=O)cc1`, the figures for the AC50 in [1] and in [5] were 4.47 µM (inconclusive) and 25.1 µM (inconclusive), respectively.

Consider `CN1CCc2nc3sc(C(=O)NC(C)(C)C)c(N)c3cc2C1`, for which the AC50 in test [1] was 31.6 µM (inconclusive); in [5] it was 14.1 µM (inconclusive).

For `O=C(NCc1ccco1)c1cc(C(=O)C2CCCCC2)c[nH]1`, the AC50 in test [1] was 14.1 µM (inconclusive); in [2], 8.91 µM (inconclusive).

Consider `O=C(CSc1ccccc1)Nc1ccc(NC(=O)c2ccco2)cc1`, for which the AC50 in test [1] is 14.1 µM (inconclusive); in [2] it was 20 µM (inconclusive).

For `COc1ccc(CN2CCCC(C(=O)N3CCCC3)C2)cc1` (configuration not stated), the IC50 in [3] is 109 µM (active).

In the case of `COc1ccccc1NS(=O)(=O)c1cc(C(=O)NCCC(C)C)ccc1F`, the EC50 in test [7] was 8.2 µM (active).

As to `CCNc1ncc2nc(-c3cc(F)cc(F)c3)c(=O)n(C[C@H]3CCCO3)c2n1`, the AC50 is 3.16 µM (inconclusive) in test [5] and 15.8 µM (inconclusive) in test [6].

Turning to `CN(C)S(=O)(=O)c1ccc(C(=O)Nc2ccc(CN3CCCC3)cc2)cc1`, in [2], the AC50 was 1.78 µM (inconclusive).

Take `COc1ccc(/C=N/NC(=O)c2cnccn2)cc1O`: the 50% inhibitory concentration (IC50) in test [3] is 85.6 µM (active).

On to `Cc1ccccc1OCCC(=O)Nc1cc(S(=O)(=O)N2CCCCC2)ccc1N1CCN(C)CC1`, for which the EC50 in [7] is 9.71 µM (active).

As to `CCOC(=O)c1cnc2c(cnn2C)c1NCCCN(C)C`, the AC50 in [5] was 22.4 µM (inconclusive).

Consider `CCc1cc(-c2n[nH]cc2-c2nc3ccccc3n2C)c(O)cc1O`, for which, in test [3], the IC50 is 83.6 µM (active).

Take `CN(Cc1ccccc1)Cc1c(O)ccc2ccccc12`: the IC50 in test [3] is 89.3 µM (active).

Consider `CCOc1cc(N2CCOCC2)c(OCC)cc1NC(=O)c1ccc(C)s1`, for which the IC50 in [3] is 70.8 µM (active).

For `Cc1cccc(CNc2ccnc(-c3ccccc3Cl)n2)c1`, in test [2], the AC50 was 0.794 µM (inconclusive).

As to `Cc1ccc(OCC(=O)NNC(=O)C2CCN(c3ncccn3)CC2)cc1`, the AC50 was 0.501 µM (inconclusive) in test [1], 20 µM (inconclusive) in test [6] and 14.1 µM (inconclusive) in test [2].

`C#CCN1C(C)=C(C(=O)OC)[C@@H](c2cccc([N+](=O)[O-])c2)C(C(=O)OCC)=C1C`: the AC50 was 15.8 µM (inconclusive) in test [4] and 12.6 µM (inconclusive) in test [5].

As for `O=C(Nc1cccc(F)c1)c1cc(S(=O)(=O)N2CCOCC2)ccc1N1CCCC1`, the EC50 in [7] is > 53 µM (inactive).

For `CCCc1nnc(NC(=O)Cn2c(=O)oc3cc(Br)ccc32)s1`, the EC50 in test [7] was 9.87 µM (active).

With `COc1cc(C(C)n2nnc3ccccc32)ccc1O` (configuration not stated), the IC50 in [3] is 108 µM (active).

On to `Cc1ccnc(Nc2nc(-c3ccc(O)cc3)cs2)c1`, for which the IC50 in test [3] was 105 µM (active).

Regarding `Cc1cc(Nc2ccccc2)nc(N)n1`, the AC50 in [5] was 8.91 µM (inconclusive).

With `Cn1c(=O)[nH]c(=O)c2c1nc(NCCCO)n2CCCc1ccccc1`, the AC50 in test [2] was 12.6 µM (inconclusive).

Consider `CCOc1cc(/C=N/Nc2ncc(C)c(O)n2)ccc1O`, for which, in [3], the IC50 is 32.1 µM (active).

Consider `CC(C)NC(=O)N1CCN(c2ccncc2S(=O)(=O)N2CCOCC2)CC1`, for which the AC50 in [1] was 39.8 µM (inconclusive); in test [2], 35.5 µM (inconclusive).

In the case of `O=c1c(CCc2ccccc2)nc2cncnc2n1C1CC1`, the AC50 in [1] is 39.8 µM (inconclusive); in test [4], 15.8 µM (inconclusive); in [6], 10 µM (inconclusive); in test [2], 25.1 µM (inconclusive).

`CC(Oc1ccc(Cl)cc1Cl)C(=O)/C=C/N(C)C` (configuration not stated): the AC50 in test [4] was 14.1 µM (inconclusive); in [6], 25.1 µM (inconclusive); in [2] it was 12.6 µM (inconclusive).

With `O=C(CSc1ccc(C(F)(F)F)cc1[N+](=O)[O-])Nc1ccccc1`, the AC50 in [5] was 1.26 µM (inconclusive); in [6], 15.8 µM (inconclusive).

Take `C/C(CCN1CCc2nc(-c3ccccc3)c(-c3ccccc3)cc2C1)=N\O[C@@H](C)c1cc(-c2c(C)cc(C)cc2C)no1`: the values for the concentration at half-maximal activity (AC50) in [1], in test [6] and in test [2] were 0.00631 µM (inconclusive), 3.98 µM (inconclusive) and 0.316 µM (inconclusive), respectively.

As for `COc1ccc(-c2sc3ccc(OC)cc3c2C#CCCO)cc1`, the EC50 was 7.3 µM (active) in test [8] and 9.32 µM (active) in test [9]. For the same molecule, the AC50 in [10] is 2.88 µM (active).

In the case of `O=C(CNC(=O)c1ccco1)N/N=C/c1ccc(O)cc1O`, the IC50 in test [3] is 104 µM (active).

As to `COC(=O)c1[nH]c2ccc(Cl)cc2c1NC(=O)Oc1ccccc1`, the IC50 in test [3] is 19.8 µM (active).

Regarding `O=C(O)Cc1cccnc1C(=O)O`, in [5], the AC50 was 39.8 µM (inconclusive).

Take `COc1ccc(-n2c(=O)c(-c3cc(F)cc(F)c3)nc3cnc(N4CCNCC4)nc32)cc1`: the AC50 in [5] is 12.6 µM (inconclusive); in test [6] it was 25.1 µM (inconclusive).

These data come from ChEMBL document CHEMBL1201862, “PubChem BioAssay data set” (2004).
